pEC50, pKi: −log10 of the molar value. Where two headings read alike, the source gives them in different places.
Columns and labels:
[1] = format: in vivo; conditions: rat; oral or IV administration; within minutes
Experimental: The rat PK (FIG. 6) was assessed with an oral dose of 10 mg/kg and intravenously at 1 mg/kg. […] The PK and brain concentrations were assessed in cohorts of 3 […] for each dosing group and between the plasma vs brain concentrations. For 10 mg/kg oral dosing, the PK parameters are outlined in Table 16 below.
1 mg/kg IV dosing, the PK parameters are outlined in Table 17.

Sigma 1 = Sigma 1 (Homo sapiens, UniProt Q99720); experiment: Radioligand binding in vitro assay, Sigma 1
5-HT1B = 5-HT1B (Homo sapiens, UniProt P28222); experiment: Radioligand binding in vitro assay, 5-HT1B
5-HT7A [2] = target: T1, 5-HT7A (Homo sapiens, UniProt P34969); experiment: Radioligand binding in vitro assay, 5-HT7A
[3] = rat, in vivo
5-HT1D = 5-HT1D (Homo sapiens, UniProt P28221); experiment: Radioligand binding in vitro assay, 5-HT1D
in vivo = conditions: rat, 3 mg/kg
5-HT6 [4] = target: T2, 5-HT6 (Homo sapiens, UniProt P50406); experiment: Radioligand binding in vitro assay, 5-HT6
Sigma 2 = Sigma 2 (Homo sapiens, UniProt Q5BJF2); experiment: Radioligand binding in vitro assay, Sigma 2
[5] = Rat pharmacodynamics (hypothermia) of intranasal DMT; conditions: in vivo
5-HT5A = 5-HT5A (Homo sapiens, UniProt P47898); experiment: Radioligand binding in vitro assay, 5-HT5A
5-HT1E = 5-HT1E (Homo sapiens, UniProt P28566); experiment: Radioligand binding in vitro assay, 5-HT1E
5-HT2B [6] = target: T3, 5-HT2B (Homo sapiens, UniProt P41595); experiment: Radioligand binding in vitro assay, 5-HT2B
5-HT2A [7] = target: T4, 5-HT2A (Homo sapiens, UniProt P28223); experiment: biochemical; conditions: radioligand binding
5-HT1A = 5-HT1A (Homo sapiens, UniProt P08908); experiment: Radioligand binding in vitro assay, 5-HT1A
5-HT2C [8] = target: T5, 5-HT2C (Homo sapiens, UniProt P28335); experiment: biochemical; conditions: radioligand binding
5-HT2B [9] = target: T3, 5-HT2B; experiment: In vitro functional activity, 5-HT2B; format: biochemical; conditions: agonism
Excerpt: (§1) The functional activity considers agonism vs. antagonism. […] Each of these receptors affects mental health, learning, memory, and more specifically, 5-HT6 is responsible for precognitive effects and neuronal connections, growth, and migration.

5-HT7A [10] = target: T1, 5-HT7A; experiment: In vitro functional activity, 5-HT7A; format: biochemical; conditions: agonism; inverse agonism at 5-HT7A
Excerpt: as §1

5-HT2A [11] = target: T4, 5-HT2A; experiment: In vitro functional activity, 5-HT2A; format: biochemical; conditions: agonism
5-HT6 [12] = target: T2, 5-HT6; experiment: In vitro functional activity, 5-HT6; format: biochemical; conditions: agonism
Excerpt: as §1

5-HT2C [13] = target: T5, 5-HT2C; experiment: biochemical; conditions: agonism
mice [14] = experiment: In vivo mouse head-twitch response
mice [15] = experiment: 2-day Porsolt Forced-Swim Test; format: in vivo; conditions: Mus musculus, ip, both days, read-out: Porsolt Forced Swim (Both Days), minimum effective dose
Excerpt: The 2-day Porsolt Forced-Swim Test is a preclinical assay that tests for antidepressant effects in mice. […] Day 2 behavior is more likely to assess learning and memory with shorter swim times indicative of learning to be rescued.

mice [16] = experiment: Elevated plus maze
mice [17] = experiment: Fear extinction and conditioning; format: in vivo, mouse
Excerpt: The fear extinction and conditioning model is a preclinical assay that performs a stimulus and tests response time and recognition of the stimulus. This translational model can correlate to anxiety, PTSD, memory, and precognitive effects to the positive control (4-AcO-DMT).

[18] = radioligand binding, read-out: Ki 5-HT1B
[19] = radioligand binding, read-out: Ki 5-HT1D
[20] = radioligand binding, read-out: Ki 5-HT1E
[21] = radioligand binding, read-out: Ki Sigma 1
[22] = radioligand binding, read-out: Ki Sigma 2
[23] = radioligand binding, read-out: Ki 5-HT5A

T4 sequence (P28223 whole entry): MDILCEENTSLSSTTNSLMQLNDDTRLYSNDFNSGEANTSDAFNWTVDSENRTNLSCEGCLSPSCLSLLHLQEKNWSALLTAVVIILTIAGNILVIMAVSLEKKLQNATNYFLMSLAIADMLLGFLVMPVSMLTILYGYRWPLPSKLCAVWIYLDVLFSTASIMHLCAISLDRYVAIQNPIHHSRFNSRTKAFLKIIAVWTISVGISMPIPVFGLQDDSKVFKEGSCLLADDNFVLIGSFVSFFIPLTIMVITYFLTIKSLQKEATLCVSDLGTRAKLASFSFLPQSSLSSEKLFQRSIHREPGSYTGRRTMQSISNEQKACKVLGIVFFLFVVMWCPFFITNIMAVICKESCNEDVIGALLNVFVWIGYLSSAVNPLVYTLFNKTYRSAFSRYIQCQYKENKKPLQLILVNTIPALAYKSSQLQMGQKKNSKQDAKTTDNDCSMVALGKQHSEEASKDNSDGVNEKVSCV
Chain of Sigma 1 (Q99720 whole entry): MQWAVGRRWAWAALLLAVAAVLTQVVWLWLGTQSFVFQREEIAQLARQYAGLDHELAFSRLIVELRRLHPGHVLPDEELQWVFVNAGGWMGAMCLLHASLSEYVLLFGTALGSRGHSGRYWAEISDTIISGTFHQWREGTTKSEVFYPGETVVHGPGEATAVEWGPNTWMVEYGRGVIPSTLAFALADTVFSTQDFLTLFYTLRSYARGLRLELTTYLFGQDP
Chain of 5-HT1E (P28566 whole entry): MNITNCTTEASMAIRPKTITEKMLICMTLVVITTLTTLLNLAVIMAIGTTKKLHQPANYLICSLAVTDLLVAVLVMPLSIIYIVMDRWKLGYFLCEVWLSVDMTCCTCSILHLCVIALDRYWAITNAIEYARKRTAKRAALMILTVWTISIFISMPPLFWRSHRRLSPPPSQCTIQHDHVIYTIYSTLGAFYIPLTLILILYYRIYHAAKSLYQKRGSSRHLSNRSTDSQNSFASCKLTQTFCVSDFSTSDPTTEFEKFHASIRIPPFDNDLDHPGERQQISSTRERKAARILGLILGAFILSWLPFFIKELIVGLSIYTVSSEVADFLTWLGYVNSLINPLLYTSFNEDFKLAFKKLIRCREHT
Chain of Sigma 2 (Q5BJF2 whole entry): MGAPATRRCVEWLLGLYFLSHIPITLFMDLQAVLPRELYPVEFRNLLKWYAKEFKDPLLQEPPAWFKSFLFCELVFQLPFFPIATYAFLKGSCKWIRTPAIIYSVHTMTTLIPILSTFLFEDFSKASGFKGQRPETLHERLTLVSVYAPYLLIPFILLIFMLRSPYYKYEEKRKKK
Chain of 5-HT1B (P28222 whole entry): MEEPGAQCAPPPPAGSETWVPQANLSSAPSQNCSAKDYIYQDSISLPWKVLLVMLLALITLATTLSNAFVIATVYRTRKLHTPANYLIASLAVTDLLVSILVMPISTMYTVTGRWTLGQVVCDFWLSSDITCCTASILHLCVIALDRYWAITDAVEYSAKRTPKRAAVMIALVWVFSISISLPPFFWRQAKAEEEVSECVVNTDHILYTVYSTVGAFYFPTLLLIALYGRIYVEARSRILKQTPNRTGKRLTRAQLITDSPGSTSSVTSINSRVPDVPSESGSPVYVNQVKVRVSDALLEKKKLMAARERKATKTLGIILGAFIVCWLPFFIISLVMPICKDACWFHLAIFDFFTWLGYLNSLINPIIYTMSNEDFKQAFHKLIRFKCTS
T5 sequence (P28335 33-458): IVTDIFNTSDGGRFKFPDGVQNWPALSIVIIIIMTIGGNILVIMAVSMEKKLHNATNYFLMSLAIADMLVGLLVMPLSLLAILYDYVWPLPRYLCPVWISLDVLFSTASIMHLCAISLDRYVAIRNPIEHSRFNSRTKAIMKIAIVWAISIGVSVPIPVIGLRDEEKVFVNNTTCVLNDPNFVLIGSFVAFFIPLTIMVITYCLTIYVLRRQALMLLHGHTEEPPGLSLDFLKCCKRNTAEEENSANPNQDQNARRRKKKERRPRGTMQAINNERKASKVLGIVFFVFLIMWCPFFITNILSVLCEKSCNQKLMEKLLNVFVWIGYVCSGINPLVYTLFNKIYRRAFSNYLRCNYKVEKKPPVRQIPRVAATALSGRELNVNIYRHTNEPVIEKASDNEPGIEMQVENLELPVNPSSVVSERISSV
Chain of 5-HT5A (P47898 whole entry): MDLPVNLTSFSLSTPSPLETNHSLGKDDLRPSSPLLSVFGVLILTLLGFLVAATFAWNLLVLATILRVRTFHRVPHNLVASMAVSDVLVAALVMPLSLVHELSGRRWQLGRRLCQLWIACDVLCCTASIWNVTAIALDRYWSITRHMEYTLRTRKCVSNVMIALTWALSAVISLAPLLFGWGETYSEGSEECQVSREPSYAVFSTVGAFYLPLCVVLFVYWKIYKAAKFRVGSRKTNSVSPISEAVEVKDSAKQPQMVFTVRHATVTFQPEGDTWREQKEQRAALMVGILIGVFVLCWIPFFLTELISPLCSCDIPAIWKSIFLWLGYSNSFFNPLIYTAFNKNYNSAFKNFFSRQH
Chain of 5-HT1D (P28221 whole entry): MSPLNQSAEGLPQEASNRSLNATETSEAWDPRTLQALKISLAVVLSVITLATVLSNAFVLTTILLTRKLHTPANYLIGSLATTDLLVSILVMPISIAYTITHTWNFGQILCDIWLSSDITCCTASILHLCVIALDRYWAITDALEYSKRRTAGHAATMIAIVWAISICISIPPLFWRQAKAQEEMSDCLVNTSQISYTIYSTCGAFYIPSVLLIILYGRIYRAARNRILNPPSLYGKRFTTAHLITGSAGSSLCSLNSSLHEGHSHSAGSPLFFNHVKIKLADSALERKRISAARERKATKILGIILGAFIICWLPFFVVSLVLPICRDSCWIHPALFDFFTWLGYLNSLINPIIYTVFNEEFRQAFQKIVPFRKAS
T1 sequence (P34969 other isoform, or with tags, fused parts or gaps): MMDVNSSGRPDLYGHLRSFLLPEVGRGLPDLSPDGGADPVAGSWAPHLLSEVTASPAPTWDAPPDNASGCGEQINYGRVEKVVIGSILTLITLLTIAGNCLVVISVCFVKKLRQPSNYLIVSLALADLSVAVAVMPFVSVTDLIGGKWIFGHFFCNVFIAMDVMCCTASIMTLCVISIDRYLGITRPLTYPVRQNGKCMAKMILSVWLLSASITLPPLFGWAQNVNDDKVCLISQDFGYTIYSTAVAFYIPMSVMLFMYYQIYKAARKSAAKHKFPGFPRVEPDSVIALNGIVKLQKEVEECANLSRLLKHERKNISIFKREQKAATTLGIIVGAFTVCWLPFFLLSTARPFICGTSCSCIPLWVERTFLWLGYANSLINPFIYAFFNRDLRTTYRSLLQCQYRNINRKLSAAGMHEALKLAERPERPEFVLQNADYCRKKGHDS
Chain of 5-HT1A (P08908 whole entry): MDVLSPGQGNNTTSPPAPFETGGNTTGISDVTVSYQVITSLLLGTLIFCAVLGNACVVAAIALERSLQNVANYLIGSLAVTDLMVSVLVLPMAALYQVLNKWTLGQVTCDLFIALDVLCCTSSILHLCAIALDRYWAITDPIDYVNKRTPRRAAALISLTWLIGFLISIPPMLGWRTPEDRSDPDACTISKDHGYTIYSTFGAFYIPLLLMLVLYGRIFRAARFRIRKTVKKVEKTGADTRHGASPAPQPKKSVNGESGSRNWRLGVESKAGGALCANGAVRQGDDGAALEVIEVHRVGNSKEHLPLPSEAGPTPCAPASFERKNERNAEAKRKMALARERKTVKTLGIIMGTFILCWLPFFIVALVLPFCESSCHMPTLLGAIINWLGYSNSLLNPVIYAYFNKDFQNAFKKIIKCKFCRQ
T2 sequence (P50406 whole entry): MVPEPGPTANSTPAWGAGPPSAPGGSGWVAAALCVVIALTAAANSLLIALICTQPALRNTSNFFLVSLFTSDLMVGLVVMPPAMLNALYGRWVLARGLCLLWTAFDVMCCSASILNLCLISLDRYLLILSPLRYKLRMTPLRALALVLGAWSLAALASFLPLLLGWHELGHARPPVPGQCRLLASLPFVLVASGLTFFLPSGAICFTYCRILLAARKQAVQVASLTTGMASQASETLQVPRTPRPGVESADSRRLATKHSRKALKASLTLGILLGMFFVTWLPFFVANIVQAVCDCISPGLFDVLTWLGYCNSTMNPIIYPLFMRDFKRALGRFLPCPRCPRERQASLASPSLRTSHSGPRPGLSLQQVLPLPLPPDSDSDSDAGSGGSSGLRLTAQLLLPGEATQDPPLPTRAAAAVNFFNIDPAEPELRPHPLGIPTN
T3 sequence (P41595 whole entry): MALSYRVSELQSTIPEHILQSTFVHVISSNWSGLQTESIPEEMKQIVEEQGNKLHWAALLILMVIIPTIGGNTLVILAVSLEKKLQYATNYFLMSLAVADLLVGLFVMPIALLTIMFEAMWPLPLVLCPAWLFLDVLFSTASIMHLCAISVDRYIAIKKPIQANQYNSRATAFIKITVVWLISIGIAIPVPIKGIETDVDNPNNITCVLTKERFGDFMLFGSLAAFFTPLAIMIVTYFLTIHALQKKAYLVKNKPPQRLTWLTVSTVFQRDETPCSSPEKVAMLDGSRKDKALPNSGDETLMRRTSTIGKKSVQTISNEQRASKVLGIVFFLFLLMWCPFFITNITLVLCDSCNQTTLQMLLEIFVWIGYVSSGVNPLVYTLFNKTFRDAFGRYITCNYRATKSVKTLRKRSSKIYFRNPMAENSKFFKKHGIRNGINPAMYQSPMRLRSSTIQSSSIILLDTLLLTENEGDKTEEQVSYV

Br.CN(C)CCc1c(Br)[nH]c2ccccc12 [2-Br-4-AcO-DMT*HBr, 2-(2-bromo-1H-indol-3-yl)-N,N-dimethylethan-1-amine hydrobromide salt]
metabolism via deacetylation into 2-Br-4-OH-DMT [1]: rapidly metabolized via deacetylation into an active metabolite

CN(C)CCc1c[nH]c2ccccc12 [N,N-dimethyltryptamine, reference compound]
pKi (Sigma 1): 6.64 | pKi (5-HT1B): 6.25 | pKi (5-HT7A [2]): 7.82 | tmax (maximal effects) [3]: 10 min | pKi (5-HT1D): 7.37 | Cmax (in vivo): 60 ng/mL | pKi (5-HT6 [4]): 6.87 | pKi (Sigma 2): 6.11 | hypothermia [5]: dose-dependent hypothermia | pKi (5-HT5A): 6.81 | pKi (5-HT1E): 6.98

CN(C)CCc1c(Br)[nH]c2ccccc12 [drawing 2]
pKi (5-HT2B [6]): 6.65 | pKi (5-HT1B; [18]): < 5.00 | pKi (5-HT1D; [19]): < 5.00 | pKi (5-HT2A [7]): 6.38 | pKi (5-HT1A): < 5.00 | pKi (5-HT1E; [20]): < 5.00

CN(C)CCc1c(Cl)[nH]c2ccccc12 [drawing 3]
pKi (5-HT2B [6]): 6.72 | pKi (5-HT1B; [18]): < 5.00 | pKi (5-HT1D; [19]): < 5.00 | pKi (5-HT1E; [20]): 5.41

CC(=O)Oc1cccc2[nH]cc(CCN(C)C)c12 [drawing 4]
pKi (5-HT2B [6]): 7.94

CC(=O)Oc1cccc2[nH]c(Br)c(CCN(C)C)c12 [drawing 5]
pKi (5-HT2B [6]): 7.17 | pKi (5-HT1B; [18]): < 5.00 | pKi (5-HT1D; [19]): < 5.00 | pKi (5-HT1E; [20]): < 5.00

CC(C)N(CCc1c(Br)[nH]c2ccccc12)C(C)C [drawing 6]
pKi (5-HT2B [6]): 7.34 | pKi (5-HT1B; [18]): < 5.00 | pKi (5-HT1D; [19]): 5.97 | pKi (5-HT1E; [20]): < 5.00

CN(C)CCc1c[nH]c2cccc(NS(C)(=O)=O)c12 [drawing 7]
pKi (5-HT2B [6]): 5.72 | pKi (5-HT2A [7]): < 5.00 | pKi (5-HT1A): 5.54

CC(=O)Nc1cccc2[nH]cc(CCN(C)C)c12 [drawing 8]
pKi (5-HT2B [6]): 6.15 | pKi (5-HT2A [7]): 5.47 | pKi (5-HT1A): 6.24

CN(C)CCc1c(Br)[nH]c2ccccc12 [drawing 9]
pKi (Sigma 1; [21]): 6.62 | pKi (5-HT7A [2]; radioligand binding): 6.86 | pKi (Sigma 2; [22]): 5.61 | pKi (5-HT5A; [23]): 5.82

CN(C)CCc1c(Cl)[nH]c2ccccc12 [drawing 10]
pKi (Sigma 1; [21]): 6.20 | pKi (5-HT7A [2]; radioligand binding): 6.75 | pKi (5-HT6 [4]; radioligand binding): 7.21 | pKi (Sigma 2; [22]): < 5.00 | pKi (5-HT2C [8]): 6.92 | pKi (5-HT5A; [23]): 5.52

CC(=O)Oc1cccc2[nH]cc(CCN(C)C)c12 [drawing 11]
pKi (Sigma 1; [21]): < 5.00 | pKi (5-HT7A [2]; radioligand binding): 7.22 | pKi (Sigma 2; [22]): < 5.00

CC(=O)Oc1cccc2[nH]c(Br)c(CCN(C)C)c12 [drawing 12]
pKi (Sigma 1; [21]): < 5.00 | pKi (5-HT7A [2]; radioligand binding): 6.40 | pKi (5-HT6 [4]; radioligand binding): 7.15 | pKi (Sigma 2; [22]): < 5.00 | pKi (5-HT2C [8]): 5.91 | pKi (5-HT5A; [23]): 6.05

CC(C)N(CCc1c(Br)[nH]c2ccccc12)C(C)C [drawing 13]
pKi (Sigma 1; [21]): 6.59 | pKi (5-HT7A [2]; radioligand binding): 5.31 | pKi (5-HT6 [4]; radioligand binding): 6.39 | pKi (Sigma 2; [22]): 6.32 | pKi (5-HT2C [8]): < 5.00 | pKi (5-HT5A; [23]): < 5.00

CN(C)CCc1c[nH]c2cccc(NS(C)(=O)=O)c12 [drawing 14]
pKi (Sigma 1; [21]): < 5.00 | pKi (5-HT7A [2]; radioligand binding): 6.03 | pKi (5-HT6 [4]; radioligand binding): < 5.00 | pKi (Sigma 2; [22]): < 5.00 | pKi (5-HT2C [8]): < 5.00

CC(=O)Nc1cccc2[nH]cc(CCN(C)C)c12 [drawing 15]
pKi (Sigma 1; [21]): < 5.00 | pKi (5-HT7A [2]; radioligand binding): 6.54 | pKi (5-HT6 [4]; radioligand binding): < 5.00 | pKi (Sigma 2; [22]): < 5.00 | pKi (5-HT2C [8]): 6.00

CN(C)CCc1c(Br)[nH]c2ccccc12 [drawing 16]
pEC50 (5-HT2B [9]): 6.10 | pEC50 (5-HT7A [10]): 6.65 | pEC50 (5-HT2A [11]): < 5.00 | pEC50 (5-HT6 [12]): 8.15

CN(C)CCc1c(Cl)[nH]c2ccccc12 [drawing 17]
pEC50 (5-HT7A [10]): 6.20 | pEC50 (5-HT2A [11]): 6.69 | pEC50 (5-HT6 [12]): 8.05 | pEC50 (5-HT2C [13]): 5.35

CC(=O)Oc1cccc2[nH]c(Br)c(CCN(C)C)c12 [drawing 18]
pEC50 (5-HT7A [10]): 6.04 | pEC50 (5-HT6 [12]): 8.10 | pEC50 (5-HT2C [13]): 6.06

CC(C)N(CCc1c(Br)[nH]c2ccccc12)C(C)C [drawing 19]
pEC50 (5-HT2B [9]): 7.74 | pEC50 (5-HT7A [10]): 5.23 | pEC50 (5-HT2A [11]): 5.67 | pEC50 (5-HT6 [12]): 6.73 | pEC50 (5-HT2C [13]): < 5.00

CN(C)CCc1c(Br)[nH]c2ccccc12 [drawing 20]
Head Twitch Response Results (mice [14]): No Head Twitch up to 50 mg/kg

CN(C)CCc1c(Cl)[nH]c2ccccc12 [drawing 21]
Head Twitch Response Results (mice [14]): No Head Twitch up to 100 mg/kg

CC(=O)Oc1cccc2[nH]cc(CCN(C)C)c12 [drawing 22, reference compound]
Head Twitch Response Results (mice [14]): Positive Control causes head twitch at 20 mg/kg

CC(=O)Oc1cccc2[nH]c(Br)c(CCN(C)C)c12 [drawing 23]
Head Twitch Response Results (mice [14]): No Head Twitch up to 50 mg/kg

CC(C)N(CCc1c(Br)[nH]c2ccccc12)C(C)C [drawing 24]
Head Twitch Response Results (mice [14]): No Head Twitch up to 25 mg/kg

CN(C)CCc1c[nH]c2cccc(NS(C)(=O)=O)c12 [drawing 25]
Head Twitch Response Results (mice [14]): No Head Twitch up to 25 mg/kg

CC(=O)Nc1cccc2[nH]cc(CCN(C)C)c12 [drawing 26]
Head Twitch Response Results (mice [14]): No Head Twitch up to 50 mg/kg

CN(C)CCc1c(Br)[nH]c2ccccc12 [drawing 27]
minimal effective dose (mice [15]): 1 to 10 mg/kg

CN(C)CCc1c(Cl)[nH]c2ccccc12 [drawing 28]
minimal effective dose (mice [15]): 25 mg/kg

CC(=O)Oc1cccc2[nH]c(Br)c(CCN(C)C)c12 [drawing 29]
minimal effective dose (mice [15]): 5 mg/kg

CC(C)N(CCc1c(Br)[nH]c2ccccc12)C(C)C [drawing 30]
minimal effective dose (mice [15]): 10 mg/kg

CC(=O)Oc1cccc2[nH]c(Br)c(CCN(C)C)c12 [drawing 31]
Elevated Plus Maze, effective dose range (mice [16]): 5 to 10 mg/kg

CC(C)N(CCc1c(Br)[nH]c2ccccc12)C(C)C [drawing 32]
Elevated Plus Maze, effective dose range (mice [16]): 25 mg/kg

CN(C)CCc1c[nH]c2cccc(NS(C)(=O)=O)c12 [drawing 33]
Elevated Plus Maze, effective dose range (mice [16]): 25 mg/kg

CN(C)CCc1c(Br)[nH]c2ccccc12 [drawing 34]
Fear Extinction and Conditioning, effective dose range (mice [17]): 1 to 10 mg/kg

CC(=O)Oc1cccc2[nH]c(Br)c(CCN(C)C)c12 [drawing 35]
Fear Extinction and Conditioning, effective dose range (mice [17]): 5 to 25 mg/kg

CC(C)N(CCc1c(Br)[nH]c2ccccc12)C(C)C [drawing 36]
Fear Extinction and Conditioning, effective dose range (mice [17]): 1 to 10 mg/kg

Reference: patent publication US20260306453A1, “FORMULATIONS CONTAINING TRYPTAMINE DERIVATIVES AND USES THEREOF” (priority 2023, published 2026)
